According to the Deep4Chem optical property database:
Several values for one entry are separate records, joined by “and”; a condition that tells them apart may be missing. Identical values can stand only once. Values belong to the compound of their own block, whether it stands above or below them.

Assay: solvent given as SMILES

SMILES: CC1(CCCCC(=O)NCCCCCCO)C(/C=C/C=C/C=C2/N(CCCS(=O)(=O)[O-])c3ccc(S(=O)(=O)[O-])cc3C2(C)C)=[N+](CCCS(=O)(=O)[O-])c2ccc(S(=O)(=O)[O-])cc21 (stereo not drawn)
absorption maximum (in O): 651 nm

SMILES: C=CCOc1ccc(-c2nc3cc(C(NC(=O)OC(C)(C)C)C(=O)OC)ccc3o2)cc1 (stereo not drawn)
absorption maximum (in CC1CCCCC1): 324 nm | absorption maximum (in CC#N): 309 nm | absorption maximum (in CO): 309 nm

SMILES: Fc1ccc(C#Cc2cc(C#Cc3ccc(F)cc3)c(C#Cc3ccc(F)cc3)c(C#Cc3ccc(F)cc3)c2C#Cc2ccc(F)cc2)cc1
absorption maximum (in ClCCl): 371 nm

SMILES: CCN(CC)c1cc2oc(=O)cc(C)c2cc1C
absorption maximum (in CCO): 442 nm

SMILES: COC(=O)c1cc(=O)n(C)c2cc(-c3cccc(N(C)C)c3)sc12
absorption maximum (in CC#N): 396 nm | absorption maximum (in ClCCl): 396 nm

SMILES: CN(C)c1ccc(C(=Cc2ccc(/C=C/c3ccc(C#N)cc3)cc2)c2ccc(N(C)C)cc2)cc1
absorption maximum (in C1CCOC1): 415 nm

SMILES: CC1=[N+]2C(=C(c3ccc(N(C)C)cc3)c3ccc(C)n3[B-]2(F)F)C=C1
absorption maximum (in C1CCCCC1): 508 nm | absorption maximum (in C1CCOC1): 506 nm | absorption maximum (in CC#N): 503 nm | absorption maximum (in CC(=O)C(C)(C)C): 505 nm | absorption maximum (in CC(C)=O): 504 nm | absorption maximum (in CCCCCC): 507 nm | absorption maximum (in CCOC(C)=O): 505 nm and 504 nm | absorption maximum (in CO): 504 nm and 503 nm | absorption maximum (in Cc1ccccc1): 509 nm | absorption maximum (in ClC(Cl)Cl): 509 nm

SMILES: c1cc2c3c(c1)-c1cccc4cccc(c14)B3c1cccc3cccc-2c13
absorption maximum (in Cc1ccccc1): 466 nm

SMILES: O=C(N/N=C/c1ccccc1O)c1ccccc1
absorption maximum (in C1CCOC1): 334 nm | absorption maximum (in CC#N): 333 nm | absorption maximum (in CC(C)=O): 415 nm | absorption maximum (in CCO): 400 nm | absorption maximum (in CN(C)C=O): 397 nm | absorption maximum (in CS(C)=O): 329 nm | absorption maximum (in ClCCl): 330 nm

SMILES: Cc1cc(C)c(B(c2cc(-c3ccc(C(F)(F)F)cc3)sc2-c2sc(-c3ccc(C(F)(F)F)cc3)cc2P(=O)(c2ccccc2)c2ccccc2)c2c(C)cc(C)cc2C)c(C)c1
absorption maximum (in CO): 389 nm

SMILES: CCCC1(CCC)c2cc(-c3ccc4c(c3)C(CCC)(CCC)c3cc(-c5ccc6c(c5)C(CCC)(CCC)c5cc(C(C)(C)CC)ccc5-6)ccc3-4)ccc2-c2ccc(-c3ccc4c(c3)C(CCC)(CCC)c3cc(C(C)(C)CC)ccc3-4)cc21
absorption maximum (in C1CCCCC1): 362 nm

SMILES: CCN(CC)c1ccc(/C=C/C2=[O+][B-](F)(F)Oc3c2c(=O)oc2cc(N(CC)CC)ccc32)cc1
absorption maximum (in C1CCCCC1): 542 nm | absorption maximum (in C1COCCO1): 569 nm | absorption maximum (in CC#N): 589 nm | absorption maximum (in CC(C)=O): 584 nm | absorption maximum (in CCO): 581 nm | absorption maximum (in CCOC(C)=O): 571 nm | absorption maximum (in CO): 582 nm | absorption maximum (in CS(C)=O): 607 nm | absorption maximum (in Cc1ccccc1): 567 nm | absorption maximum (in ClC(Cl)Cl): 581 nm | absorption maximum (in ClCCl): 587 nm | absorption maximum (in OCC(O)CO): 610 nm | absorption maximum (in OCCO): 605 nm

SMILES: C#Cc1ccc2cc(/C=C/C(=O)OCC)c(=O)oc2c1
absorption maximum (in CCO): 360 nm

SMILES: CCOC(=O)c1cc(C(=O)OCC)c2cc([N+](=O)[O-])ccc2n1
absorption maximum (in CCO): 304 nm

SMILES: O=C([O-])c1ccc(C(=O)[O-])c(C2=c3cc4c5c(c3Oc3c2cc2c6c3CCCN6CCC2)CCC[N+]=5CCC4)c1
absorption maximum (in CCO): 571 nm | absorption maximum (in O): 574 nm

SMILES: c1ccc2c(c1)Oc1ccccc1N2c1ccc2c(c1)c1ccccc1n1c3ccccc3nc21
absorption maximum (in Cc1ccccc1): 376 nm

SMILES: O=Cc1cc(O)c(C=O)cc1O
absorption maximum (in C1CCOC1): 414 nm | absorption maximum (in C1COCCO1): 414 nm | absorption maximum (in CC#N): 413 nm | absorption maximum (in CC(C)=O): 413 nm | absorption maximum (in CCCO): 415 nm | absorption maximum (in CCO): 413 nm | absorption maximum (in CN(C)C=O): 414 nm | absorption maximum (in CN(C)P(=O)(N(C)C)N(C)C): 427 nm | absorption maximum (in CNC=O): 377 nm | absorption maximum (in CO): 384 nm | absorption maximum (in CS(C)=O): 417 nm | absorption maximum (in NC=O): 356 nm

SMILES: Cc1ccc(C2=C3C=CC4=[N+]3[B-](F)(F)n3c2ccc3-c2ccc([nH]2)/C(c2ccc(C)cc2)=c2/cc/c(o2)=C(\c2ccc(C)cc2)c2ccc4[nH]2)cc1
absorption maximum (in ClC(Cl)Cl): 703 nm

SMILES: CCSSCC
absorption maximum (in CCCCCC): 250 nm

SMILES: C[n+]1c2c(c(-c3ccccc3)c3c1CCCC3)CCCC2
absorption maximum (in CCO): 340.03 nm

SMILES: CCn1c2ccccc2c2cc(-c3cc(-c4ccc5c(c4)c4ccccc4n5CC)nc(SC)n3)ccc21
absorption maximum (in C1CCOC1): 371 nm | absorption maximum (in CCOC(C)=O): 369 nm | absorption maximum (in CN(C)C=O): 374 nm | absorption maximum (in Cc1ccccc1): 370 nm | absorption maximum (in ClCCl): 370 nm

SMILES: CCCCCCCCCCCCC(CCCCCCCCCC)Cn1c2cc(/C=C/c3nc4ccccc4s3)c3cccc4c5cccc6c(/C=C/c7nc8ccccc8s7)cc1c(c65)c2c34 (stereo not drawn)
absorption maximum (in C1CCCCC1): 517 nm | absorption maximum (in CC#N): 516 nm | absorption maximum (in Cc1ccccc1): 524 nm | absorption maximum (in ClCCl): 521 nm

SMILES: CC[N+]1(CC)CN2C(C)=CC(C)=C(C(=O)O)C2=N1
absorption maximum (in CN(C)C=O): 346 nm | absorption maximum (in O): 343 nm

SMILES: CCOC(=O)CSc1nc2c(c(C#N)c1C#N)CCCC2
absorption maximum (in c1ccccc1): 364 nm

SMILES: O=c1cccc2n1CN1C=C(Br)C=CC1=N2
absorption maximum (in CO): 436 nm

SMILES: CCOC(=O)/C(=C1\C(=O)C(O)=C1C=C1N(C)c2ccccc2C1(C)C)[N+](=O)[O-]
absorption maximum (in CCO): 475 nm

SMILES: CC(C)(C)c1ccc(-c2cc(-c3ccc(-c4cc(-c5ccc(C(C)(C)C)cc5)c(C(=O)N5CCCCC5)s4)s3)sc2C(=O)N2CCCCC2)cc1
absorption maximum (in ClCCl): 378 nm

SMILES: c1ccc(-c2nc(-c3ccccc3)nc(-c3ccc(N4c5ccccc5C5(c6ccccc64)c4ccccc4N(c4ccc(-c6nc(-c7ccccc7)nc(-c7ccccc7)n6)cc4)c4ccccc45)cc3)n2)cc1
absorption maximum (in Cc1ccccc1): 400 nm

SMILES: CCC1(CC)c2cc(-c3ccc(N(c4ccc(-c5ccc6c(c5)C(CC)(CC)c5cc(N7c8ccccc8C(C)(C)c8ccccc87)ccc5-6)cc4)c4ccc(-c5ccc6c(c5)C(CC)(CC)c5cc(N7c8ccccc8C(C)(C)c8ccccc87)ccc5-6)cc4)cc3)ccc2-c2ccc(N3c4ccccc4C(C)(C)c4ccccc43)cc21
absorption maximum (in ClC(Cl)Cl): 366 nm

SMILES: CC(C)(C)c1ccc2c(c1)c1cc(C(C)(C)C)ccc1n2-c1ccc(N(c2ccc(-c3ccc(-c4ccc(N(c5ccc(-n6c7ccc(C(C)(C)C)cc7c7cc(C(C)(C)C)ccc76)cc5)c5ccc(-n6c7ccc(C(C)(C)C)cc7c7cc(C(C)(C)C)ccc76)cc5)cc4)s3)cc2)c2ccc(-n3c4ccc(C(C)(C)C)cc4c4cc(C(C)(C)C)ccc43)cc2)cc1
absorption maximum (in ClCCl): 396 nm

Results, then the compound that gave them:

absorption maximum (in C1CCCCC1): 320 nm | absorption maximum (in CO): 320 nm
SMILES: C/C(=C\c1ccc(Cl)cc1)c1nc2ccccc2s1

absorption maximum (in CCCCCC): 338 nm | absorption maximum (in CO): 338 nm | absorption maximum (in ClCCl): 341 nm
SMILES: Cc1ccc2ccc3cccc4ccc1c2c34

absorption maximum (in ClCCl): 490 nm
SMILES: Fc1ccc(C2=C(c3ccc(F)cc3)c3cccc4c3c(cc3nc5ccccc5nc34)O2)cc1

absorption maximum (in ClC(Cl)Cl): 646 nm
SMILES: Cc1cc(C)c(C2=C3C=CC=[N+]3[B-]3(c4cccc5ccccc45)Oc4cc(O)cc5c6ccc(C)cc6c6cc2n3c6c45)c(C)c1 (stereo not drawn)

absorption maximum (in CC#N): 341 nm | absorption maximum (in CO): 340 nm | absorption maximum (in ClC(Cl)Cl): 344 nm
SMILES: NCc1ccc2ccc3cccc4ccc1c2c34

absorption maximum (in C1CCCCC1): 289 nm
SMILES: c1ccc(-c2ccc(-c3ccc4c(c3)CCO4)cc2)cc1

absorption maximum (in CC1CCCO1): 459 nm
SMILES: Cn1c2nc(=O)[nH]c(=O)c-2nc2ccccc21

absorption maximum (in ClCCl): 374 nm
SMILES: CCn1c2ccccc2c2cc(/C=C(\C#N)c3ccccc3)ccc21

absorption maximum (in ClCCl): 338 nm
SMILES: Clc1ccc(-c2cccc3ncc(-c4ccccc4)n23)cc1

absorption maximum (in ClC(Cl)Cl): 661 nm
SMILES: CN1C(=CC2=C([S-])C(=Cc3sc4ccccc4[n+]3C)C2=O)C(C)(C)c2ccccc21

absorption maximum (in CC#N): 339 nm
SMILES: c1ccc(N(c2ccccc2)c2ccc(-c3nc4ccccc4n3-c3ccccc3)cc2)cc1

absorption maximum (in ClC(Cl)Cl): 630 nm
SMILES: Ic1ccc(C2=C3C=CC4=[N+]3[B-]3(Oc5ccccc54)Oc4ccccc4-c4ccc2n43)cc1 (stereo not drawn)

absorption maximum (in O): 409 nm
SMILES: O=C(O)CCCCCn1c2ccccc2c(=O)c2cc(S(=O)(=O)O)ccc21

absorption maximum (in O): 458 nm
SMILES: CC[n+]1c(-c2ccccc2)c2cc(N)ccc2c2ccc(NC(N)=O)cc21

absorption maximum (in ClCCl): 364 nm
SMILES: CC(C)c1cccc(C(C)C)c1N1C(=O)c2cccc3c(Oc4ccccc4)ccc(c23)C1=O

absorption maximum (in CN(C)C=O): 400 nm
SMILES: O=C([O-])c1c2ccccc2c(C(=O)[O-])c2ccccc12

absorption maximum (in C1COCCO1): 356 nm | absorption maximum (in CC#N): 350 nm | absorption maximum (in CCCCCCC): 360 nm | absorption maximum (in CO): 353 nm
SMILES: C(/C=C/c1ccc(-n2c3ccccc3c3ccccc32)cc1)=C\c1ccncc1

absorption maximum (in ClCCl): 438 nm
SMILES: Cc1cc(-c2cccc3ccccc23)cc(C)[o+]1

absorption maximum (in ClCCl): 378 nm
SMILES: C1=C(c2ccccc2)S[C@]23C1=C(c1ccccc1)[C@H](c1ccccc12)c1ccccc13

absorption maximum (in ClCCl): 501 nm
SMILES: CCC1=C(CC)c2cccc3c2c(cc2nc4ccccc4nc23)O1

absorption maximum (in CS(C)=O): 411 nm
SMILES: Brc1ccc2cc3c4ccccc4nc(-c4ccco4)c3n2c1

absorption maximum (in ClCCl): 390 nm
SMILES: CN(C)c1ccc(/C=C/c2cnc(C#Cc3ccc(C#N)cc3)o2)cc1

absorption maximum (in CS(C)=O): 348 nm
SMILES: c1ccc(-c2nc3sc4ccccc4c3s2)cc1

absorption maximum (in CC#N): 353 nm
SMILES: O=C(O)c1ccc(-c2nc(-c3ccccc3)c3c4ccccc4ccn23)cc1

absorption maximum (in ClC(Cl)Cl): 657 nm
SMILES: CC1=c2c3c4cccc5cccc(c=3c(C)[n+]2[B-](F)(F)n2c(C)c3c(c21)-c1cccc2cccc-3c12)c54

absorption maximum (in C1CCOC1): 748 nm
SMILES: CCCCCCOc1ccc2c(c1)C1=[N+]3C2=Cc2c4ccc(OCCCCCC)cc4c4n2[B-]3(Oc2ccccc21)Oc1ccccc1-4 (stereo not drawn)

absorption maximum (in ClC(Cl)Cl): 410.5 nm
SMILES: COc1ccc(C2=Cc3c4ccccc4cc[n+]3[B-](F)(F)O2)cc1

absorption maximum (in ClCCl): 348 nm
SMILES: CC(C)(C)c1ccc2c3ccccc3c3cncnc3c2c1

absorption maximum (in ClCCl): 336 nm
SMILES: Fc1ccc(-c2cccc3ncc(-c4ccccc4)n23)cc1

absorption maximum (in ClCCl): 400 nm
SMILES: Fc1ccc(-c2c3ccccc3nc3cc4ccccc4cc23)cc1

absorption maximum (in CC#N): 474 nm | absorption maximum (in CCCCCC): 517 nm | absorption maximum (in CCOC(C)=O): 506 nm | absorption maximum (in CO): 480 nm | absorption maximum (in ClCCl): 508 nm
SMILES: COc1ccc2n1[B-](F)(F)[N+]1=C(SC#N)C=CC1=C2c1ccccc1
